Where only a bound is given, the exact number is not on record here.

The source of these data is patent US12595226B2, “Carbonate containing lipid compounds and compositions for intracellular delivery of therapeutic agents” (ModernaTX, Inc., priority 2019, dated 2026).

The nature of the series: Residual lipid levels in the liver of mice after LNP administration. In kind it is in vivo, CD-1 mice. The note with it: calculation assumes a 25 g mouse with a 1.5 g liver, >95% equals very slowly metabolism of the lipid.
`CCCCCCCCC(CCCCCCCC)OC(=O)CCCCCCCN(CCCCCCOC(=O)OCCC(CCCCCC)CCCCCC)CCCNc1c(NC)c(=O)c1=O` [Compound 65, Heptadecan-9-yl 8-((6-((((3-hexylnonyl)oxy)carbonyl)oxy)hexyl)(3-((2-(methylamino)-3,4-dioxocyclobut-1-en-1-yl)amino)propyl)amino)octanoate]: the “Approx. Percent Total Dose of Parent Lipid Remaining at 24 h” value is over 95%.

In the case of `CCCCCCCCC(CCCCCCCC)OC(=O)CCCCCCCN(CCO)CCCCCCOC(=O)OCCC(CCCCCC)CCCCCC` [Compound 66, Heptadecan-9-yl 8-((6-((((3-hexylnonyl)oxy)carbonyl)oxy)hexyl)(2-hydroxyethyl)amino)octanoate], the “Approx. Percent Total Dose of Parent Lipid Remaining at 24 h” value is on record as 48%.

Turning to `CCCCCCCCCOC(=O)OCCCCCCN(CCO)CCCCCCCC(=O)OC(CCCCCCCC)CCCCCCCC` [Compound 6, Heptadecan-9-yl 8-((2-hydroxyethyl)(6-(((nonyloxy)carbonyl)oxy)hexyl)amino)octanoate], the “Approx. Percent Total Dose of Parent Lipid Remaining at 24 h” value is 2%.

Regarding `CCCCCCCCC(CCCCCCCC)OC(=O)CCCCCCCN(CCO)CCCCCCOC(=O)OCCC(CCCCC)CCCCC` [Compound 64, Heptadecan-9-yl 8-((2-hydroxyethyl)(6-((((3-pentyloctyl)oxy)carbonyl)oxy)hexyl)amino)octanoate], the “Approx. Percent Total Dose of Parent Lipid Remaining at 24 h” value was 51%.

In the case of `CCCCCCCCC(CCCCCCCC)OC(=O)CCCCCCCN(CCCCCCOC(=O)OCCC(CCCCC)CCCCC)CCCNc1c(NC)c(=O)c1=O` [Compound 67, Heptadecan-9-yl 8-((3-((2-(methylamino)-3,4-dioxocyclobut-1-en-1-yl)amino)propyl)(6-((((3-pentyloctyl)oxy)carbonyl)oxy)hexyl)amino)octanoate], the “Approx. Percent Total Dose of Parent Lipid Remaining at 24 h” value is over 95%.
